Data published in patent publication US20190330189A1, “ANTIBACTERIAL COMPOUNDS” (Janssen Sciences Ireland UC, priority 2015, published 2019).
Where two headings read alike, the source gives them in different places.

Columns and labels:
[1] = system: Mycobacterium tuberculosis strain EH 4.0 (361.269); assay: Test 4: MIC determination, resazurin fluorescence, strain EH 4.0; format: cell-based; conditions: for IC50: Mycobacterium tuberculosis, read-out: pIC50, Test 4, M. tuberculosis strain EH 4.0 (361.269) (converted); for pIC50: Test 4, M. tuberculosis strain EH 4.0 (361.269)
Excerpt: TEST 4 (See Also Test 1 Above; in this Test a Different Strain of Mycobacterium tuberculosis Strain is Employed)
Appropriate solutions of experimental and reference compounds were made in 96 well plates with 7H9 medium. Samples of Mycobacterium tuberculosis strain EH 4.0 (361.269) were taken from cultures in stationary growth phase. These were first diluted to obtain an optical density of 0.3 at 600 nm wavelength and then diluted 1/100, resulting in an inoculum of approximately 5×10 exp5 colony forming units per well. Plates were incubated at 37° C. in plastic bags to prevent evaporation. After 7 days, resazurin was added to all wells.

[2] = system: Mycobacterium tuberculosis strain H37Rv; assay: Test 1: MIC determination, resazurin fluorescence, M. tuberculosis H37Rv; format: cell-based; conditions: Mycobacterium tuberculosis, H37RV
[3] = Test 1, M. tuberculosis H37Rv, first test, read-out: pIC50 (converted)
[4] = Test 1, repeated (2nd) test, read-out: pIC50 * (converted)
[5] = Test 1, repeated (3rd) test, read-out: pIC50 ** (converted)

SMILES | melting point | IC50 [1] | IC50 [2, 3] | IC50 [2, 4] | IC50 [2, 5] | pIC50 [1]
CCc1nc2ncc(Cl)cn2c1C(=O)NCc1ccc(N2CC3(CC(OC(F)F)C3)C2)cc1 | 163.21 °C |  |  |  |  | 
CCc1nc2sc(C)cn2c1C(=O)NCc1ccc(N2CC3(CC(O)C3)C2)cc1 [Compound 20] | 300 °C | 316 nM |  |  |  | 
CCc1nc2ccc(Cl)cn2c1C(=O)NCc1ccc(N2CC3(CCN(c4ccc(OC(F)(F)F)cc4)CC3)C2)cc1 [Compound 28] |  | 3.16 nM | 6030 nM | 7590 nM | 7410 nM | 
CCc1nc2ccc(Cl)cn2c1C(=O)NC1CCC2(CC1)CCN(c1ccc(OC(F)(F)F)cc1)CC2 [Compound 29] |  | 7940 nM | 7940 nM | 6760 nM | 7080 nM | 
Cc1nc2sccn2c1C(=O)NCc1ccc(N2CC3(COC3)C2)cc1 [Compound 30] |  | 7940 nM | 8910 nM | > 12600 nM | 11000 nM | 
CCc1c(C(=O)NCc2ccc(N3CC4(CC(F)C4)C3)cc2)c2ccncc2n1C [Compound 31] |  | > 12600 nM | > 12600 nM | > 12600 nM | > 12600 nM | 
CCc1nc2sc(C)cn2c1C(=O)NCc1ccc(N2CC3(C2)CN(c2ccc(OC(F)(F)F)cc2)C3)cc1 [Compound 68] | 180.57 °C | 63.1 nM |  |  |  | 
CCc1nc2ccc(Cl)cn2c1C(=O)NCc1ccc(N2CCC3(C2)CN(c2ccc(OC(F)(F)F)cc2)C3)cc1 [Compound 75] | 183.86 °C | 15.8 nM |  |  |  | 
CCc1nc2ccc(Cl)cn2c1C(=O)NCc1ccc(N2CC3(CCN(c4ccc(OC(F)(F)F)cc4)C3)C2)cc1 [Compound 76] | 136.04 °C | 25.1 nM |  |  |  | 
CCc1nc2n(c1C(=O)NCc1ccc(N3CC4(CC(c5ccc(OC(F)(F)F)cc5)C4)C3)cc1)CCCC2 [Compound 82] | 190.78 °C | 63.1 nM |  |  |  | 
CCc1nc2sc(C)cn2c1C(=O)NCc1ccc(N2CC3(CC(c4ccc(OC(F)(F)F)cc4)C3)C2)cc1 [Compound 83] | 108.84 °C | 100 nM |  |  |  | 
CCc1nc2ccc(Cl)cn2c1C(=O)NCc1ccc(N2CC3(CC(OC)C3)C2)cc1 [Compound 84] | 137.48 °C | 100 nM |  |  |  | 
CCc1nc2n(c1C(=O)NCc1ccc(N3CC4(CC(OC)C4)C3)cc1)CCCC2 [Compound 85] | 147.41 °C | 1000 nM |  |  |  | 
CCc1nc2ncc(Cl)cn2c1C(=O)NCc1ccc(N2CC3(CC(OC)C3)C2)cc1 [Compound 86] | 127.22 °C | 158 nM |  |  |  | 
CCc1nc2ccc(Cl)cn2c1C(=O)NCc1ccc(N2CC3(CC(c4ccc(OC)c(F)c4)C3)C2)cc1 [Compound 87] | 190.35 °C | 251 nM |  |  |  | 
CCc1nc2ncc(Cl)cn2c1C(=O)NCc1ccc(N2CC3(CC(c4ccc(OC)c(F)c4)C3)C2)cc1 [Compound 88] | 156.54 °C | 251 nM |  |  |  | 
CCc1nc2ccc(Cl)cn2c1C(=O)NCc1ccc(N2CC3(CC(c4ccncc4)C3)C2)cc1 [Compound 89] | 192.86 °C | 6310 nM |  |  |  | 
CCc1nc2ccc(Cl)cn2c1C(=O)NCc1ccc(N2CC3(CN(C(C)=O)C3)C2)cc1 [Compound 90] | 237.63 °C | 12600 nM |  |  |  | 
CCc1nc2ccc(Cl)cn2c1C(=O)NCc1ccc(N2CC3(CN(C(=O)c4ccccc4)C3)C2)cc1 [Compound 91] | 204.21 °C | 10000 nM |  |  |  | 
CCc1nc2ccc(Cl)cn2c1C(=O)NCc1ccc(C2CC3(C2)CN(C(=O)C(F)(F)F)C3)cc1 [Compound 92] | 80.75 °C | 251 nM |  |  |  | 
CCc1nc2ccc(Cl)cn2c1C(=O)NCc1ccc(N2CC3(C2)CC2(C3)OCCCO2)cc1 [Compound 95] | 154.23 °C | 158 nM |  |  |  | 

SMILES | melting point | IC50 [1] | IC50 [2, 3] | IC50 [2, 4] | IC50 [2, 5] | pIC50 [1]
CCc1nc2ccc(Cl)cn2c1C(=O)NCc1ccc(N2CC3(CC(=O)C3)C2)cc1 [Compound 96] | 182.82 °C | 126 nM |  |  |  | 
CCc1nc2ccc(Cl)cn2c1C(=O)NCc1ccc(N2CC3(CC(OC(F)(F)F)C3)C2)cc1 [Compound 117] | 167.85 °C | 20 nM |  |  |  | 
Cc1nc2sc(F)cn2c1C(=O)NCc1ccc(N2CC3(CC(=O)C3)C2)cc1 [Compound 118] | 201.34 °C | 12600 nM |  |  |  | 
CCc1nc2ccc(Cl)cn2c1C(=O)NCc1ccc(C2CC3(C2)CN(c2cccnc2)C3)cc1 [Compound 119] | 147.85 °C | 631 nM |  |  |  | 
CCc1nc2ccc(Cl)cn2c1C(=O)NCc1ccc(N2CC3(CC(c4ccccn4)C3)C2)cc1 [Compound 120] | 139.57 °C | 10000 nM |  |  |  | 
CCc1nc2ncc(Cl)cn2c1C(=O)NCc1ccc(N2CC3(C2)CN(c2cccnc2)C3)cc1 [Compound 121] | 241.08 °C | 2510 nM |  |  |  | 
CCc1nc2ncc(Cl)cn2c1C(=O)NCc1ccc(C2CC3(C2)CN(c2cccnc2)C3)cc1 [Compound 122] | 161.23 °C | 794 nM |  |  |  | 
CCc1nc2ccc(Cl)cn2c1C(=O)NCc1ccc(N2CC3(CC(n4cncn4)C3)C2)cc1 [Compound 123] | 166.63 °C | 1580 nM |  |  |  | 
CCc1nc2ccc(Cl)cn2c1C(=O)NCc1ccc(N2CC3(CC(c4nccs4)C3)C2)cc1 [Compound 124] | 135.97 °C | 79.4 nM |  |  |  | 7.2
CCc1nc2ccc(Cl)cn2c1C(=O)NCc1ccc(N2CCC3(CC2)CC(F)(F)C3)cc1 [Compound 125] | 146.77 °C | 2 nM |  |  |  | 
CCc1nc2ncc(Cl)cn2c1C(=O)NCc1ccc(N2CC3(CC(=O)C3)C2)cc1 [Compound 126] | 187.49 °C | 10000 nM |  |  |  | 4.9
Cc1nn2ccccc2c1C(=O)NCc1ccc(C2CC3(C2)CN(c2ccccc2)C3)cc1 [Compound 127] | 201.15 °C | 126 nM |  |  |  | 7.0
CCc1nc2ncc(Cl)cn2c1C(=O)NCc1ccc(C2CC3(C2)CN(C(=O)C(F)(F)F)C3)cc1 [Compound 128] | 160.59 °C | 31.6 nM |  |  |  | 
Cc1nc2sc(Cl)cn2c1C(=O)NCc1ccc(N2CC3(CC(=O)C3)C2)cc1 [Compound 129] | 188.46 °C | 398 nM |  |  |  | 6.5
CCc1nc2n(c1C(=O)NCc1ccc(N3CC4(CC(OC(F)(F)F)C4)C3)cc1)CCCC2 [Compound 130] | 169.56 °C | 15.8 nM |  |  |  | 
CCc1nc2ncc(Cl)cn2c1C(=O)NCc1ccc(N2CC3(CC(OC(F)(F)F)C3)C2)cc1 [Compound 131] | 172.76 °C | 5.01 nM |  |  |  | 
CCc1nc2ccc(Cl)cn2c1C(=O)NCc1ccc(C2CC3(C2)CN(c2cnccn2)C3)cc1 [Compound 132] | 149.46 °C | 7940 nM |  |  |  | 
CCc1nc2ncc(Cl)cn2c1C(=O)NCc1ccc(N2CCC3(CC2)CC(F)(F)C3)cc1 [Compound 133] | 84.29 °C | 2 nM |  |  |  | 
CCc1nc2ncc(Cl)cn2c1C(=O)NCc1ccc(C2CC3(C2)CN(c2cncnc2)C3)cc1 [Compound 134] | 188.07 °C | 6.31 nM |  |  |  | 
CCc1nn2ccccc2c1C(=O)NCc1ccc(C2CC3(C2)CN(c2ccc(OC(F)(F)F)cc2)C3)cc1 [Compound 138] | 105.98 °C | 39.8 nM |  |  |  | 
CCc1nn2c(c1C(=O)NCc1ccc(C3CC4(C3)CN(c3ccc(OC(F)(F)F)cc3)C4)cc1)CCCC2 [Compound 139] | 135.21 °C | 7940 nM |  |  |  | 
